The values that follow come from paper PMC5974403, “The novel histone de acetylase 6 inhibitor, MPT0G211, ameliorates tau phosphorylation and cognitive deficits in an Alzheimer’s disease model” (Cell Death & Disease, 2018).

For one assay, the system named is Neuro-2a cells. Nature of the assay: Western blot of tau phosphorylation and kinases in Neuro-2a cells transfected with pCAX APP 695 and pRK5-EGFP-Tau P301L. Conditions: 0.1 μM, 24 h. It counts as cell-based, mouse. The method, then:
Images represented magnification at ×100. b Cells were transfected with pCAX APP 695 for 24 h, harvested, and cell lysates were subjected to Western blotting. c, d SH-SY5Y and Neuro-2a cells were transfected with pCAX APP 695 and/or pRK5-EGFP-Tau P301L for 24 h. Cell lysates were prepared for western blot analysis of the indicated proteins. e, f Cells were transfected with pCAX APP 695 and pRK5-EGFP-Tau P301L for 24 h and were then incubated with or without MPT0G211 or ACY-1215 (0.1 μM) for another 24 h. Cell lysates were subjected to western blot analysis using the indicated antibodies. Results are presented as the mean ± SEM from three independent experiments. **p < 0.01, ***p < 0.001 compared with the control group; ^#p < 0.05, ^##p < 0.01 compared with the indicated groups
Cell lysates were prepared for western blot analysis of the indicated proteins. Results are presented as the mean ± SEM. *p < 0.05, **p < 0.01, and ***p < 0.001 compared with the control group; ^#p < 0.05, ^##p < 0.01, ^###p < 0.001 compared with the indicated groups
Cells were seeded 1 day before transfection. The plasmids pCAX FLAG APP and pRK5-EGFP-Tau P301L (1 μg each) and 1 μL of TurboFect transfection reagent were mixed for 20 min at room temperature, added to the cells, and the suspensions were incubated for 24 h at 37 °C in a humidified atmosphere containing 5% CO2.
(§1) Cells (1 × 10^6) were incubated for 10 min at 4 °C in lysis buffer (20 mM HEPES, pH 7.4, 2 mM EGTA, 50 mM β-glycerophosphate, 0.1% Triton X-100, 10% glycerol, 1 mM dithiothreitol, 1 μg/mL leupeptin, 5 μg/mL aprotinin, 1 mM phenylmethylsulfonyl fluoride, and 1 mM sodium orthovanadate), scraped from the plate, incubated on ice for 10 min, and centrifuged at 17,000 × g for 30 min at 4 °C. Protein samples (30 μg) were electrophoresed through sodium dodecyl sulfate-polyacrylamide gels (SDS-PAGE) and transferred onto a nitrocellulose membrane, which was then blocked by incubation for 30 min at room temperature with 5% fat-free milk in PBS. Immunoblotting was performed by overnight incubation at 4 °C with primary antibodies in PBS, followed by incubation for 1 h at room temperature with HRP-conjugated secondary antibodies. Bound antibodies were measured using ECL reagent (T-Pro Biotechnology, New Taipei City, Taiwan), and the membrane was placed on a photographic film. Cell lysates (30 μg) were incubated with antibodies (1 μg each) and protein A/G agarose beads overnight at 4 °C. The precipitated beads were washed three times with 1 mL of ice-cold cell lysis buffer, and bound immune complexes were separated using 8% SDS-PAGE, followed by immunoblotting using the indicated primary antibody.

For assay [1], the system named is SH-SY5Y cells. The assay can be described thus: Flow cytometry of sub-G1 (PI) and annexin V/PI in transfected SH-SY5Y cells. The assay is classed as cell-based, human. Conditions: 0.1 μM, 24 h. The method, then:
The fractionation scheme used to separate different cellular pools of tau, and the western blot analysis of the effects of the compounds on tau pools generated using the fractionation scheme are presented. b, d SH-SY5Y cells were transfected for 24 h with pCAX APP 695 and pRK5-EGFP-Tau P301L, incubated with or without MPT0G211 or ACY-1215 (0.1 μM) for another 24 h, and then the cells were fixed and stained by propidium iodide (b) or annexin V/PI double staining (d) and analyzed by flow cytometry. c, e Percentages of the subG1 phase (c) or annexin V-positive cells (e) in response to drug treatment as explained in (b). Results are presented as the mean ± SEM. *p < 0.05 and **p < 0.01 compared with the control group; ^#p < 0.05 and ^##p < 0.01 compared with the indicated groups TEXT PRINTED IN THE PICTURE: (B) MPT0G211: hAPP + hTauP301L: SubG1 10.91% | (B) ACY-1215: hAPP + hTauP301L: SubG1 15.40% | (D) MPT0G211: hAPP + hTauP301L: 9.56%; hAPP + hTauP301L: 11.26% | (D) ACY-1215: hAPP + hTauP301L: 9.28%; hAPP + hTauP301L: 11.25%
After drug treatment, the cells were collected, washed with cold phosphate-buffered saline (PBS), and fixed with 75% alcohol overnight at −20 °C. After centrifugation, the fixed cells were washed with cold PBS and resuspended in DNA extraction buffer (0.2 M Na2HPO4, 0.1 M citric acid, pH 7.8) for 30 min. The cells were centrifuged and incubated with propidium iodide (PI) (0.1% Triton X-100, 100 μg/mL RNase A, and 80 μg/mL PI in PBS) for 30 min. The cell cycle was analyzed using a FACScan Flow cytometer and Cell Quest software (Becton Dickinson, Mountain View, CA, USA).

The subject of assay [2] is SH-SY5Y cells. Nature of the assay: Immunoprecipitation/immunoblot of HDAC6, acetyl-lysine, ubiquitin in transfected SH-SY5Y cells. It counts as cell-based, human. The conditions noted are these: 24 h. The method, then: Fig. 4 MPT0G211 increased the ubiquitination of p-tau and degradation by proteasome. a, b SH-SY5Y and Neuro-2a cells were transfected for 24 h with pCAX APP 695 and pRK5-EGFP-Tau P301L and incubated with MPT0G211 or ACY-1215 (0.1 μM) for another 24 h, after which the cell lysates were immunoprecipitated with antibodies against HDAC6, acetyl-lysine (a) or ubiquitin (b) and were subjected to immunoblotting. c Cells were transfected with pCAX APP 695 and pRK5-EGFP-Tau P301L for 24 h and were then incubated with MPT0G211 (0.01–1 μM) for another 24 h. Immunoblots reveal polyubiquitin complexes. d pCAX APP 695 or pRK5-EGFP-Tau P301L were used to transfect the cells for 24 h, incubated with or without MG132 (1 μM) for 30 min, and were then treated with MPT0G211 or ACY-1215 (0.1 μM) for another 24 h. Cell lysates were prepared for western blot analysis of the indicated proteins
as §1

In another assay the test system is 3×Tg-AD mice. Nature of the assay: Immunohistochemistry and western blot of brain (hippocampal CA1) of 3×Tg-AD mice. The assay is classed as in vivo, mouse. Conditions: 3×Tg-AD mice, 50, 100 mg/kg oral, 3 months. An excerpt:
Red arrowheads indicate phosphorylated-tau proteins. Scale bar = 25 μm. Data represent the mean ± SEM. *p < 0.05, **p < 0.01, and ***p < 0.001 compared with the basal or control group; ^#p < 0.05, ^##p < 0.01, and ^###p < 0.001 compared with the vehicle-treated group

[3] abbreviates: hAPP + hTauP301L transfected SH-SY5Y, Fig. 3d picture, quadrant not identified.

“Also recorded” adds a separate entry of the source.

Consider `O=C(NO)c1ccc(CNc2cccc3cccnc23)cc1` [MPT0G211, N-hydroxy-4-((quinolin-8-ylamino)methyl)benzamide], for which the “phosphorylation of tau Ser396” value in the assay with Neuro-2a cells (Neuro-2a transfected hAPP 695 + hTau P301L) is reported as “significantly inhibited; also recorded: significantly attenuated”. Moreover, in the assay with Neuro-2a cells (Neuro-2a transfected), the “CDK5, p25, or p35 expression” value is reported as “no marked changes”; the “phospho-GSK3β on Ser9” value was “significant phospho-GSK3β increases”; the “phospho-GSK3β on Ser216” value was “a decrease”; the “phosphorylation of tau Ser404” value is on record as “significantly attenuated”. Further, the SubG1 population with SH-SY5Y cells [1] (hAPP + hTauP301L transfected SH-SY5Y, PI staining, Fig. 3b picture) was determined as 10.91%. Further, in the assay with SH-SY5Y cells [1] (setting [3]), the “annexin V/PI double staining, quadrant percentage” value came out at 11.26% and the “annexin V/PI double staining, quadrant percentage (first value)” value came to 9.56%. Moreover, in the assay on SH-SY5Y cells [1] (transfected neuronal cells), the “plasmid transfection-induced sub-G1 population and annexin V-positive apoptotic cells increase” value is “significantly inhibited”. The “coimmunoprecipitation of ubiquitin with p-tau (Ser396)” value with SH-SY5Y cells [2] (0.1 μM) is “clearly increased”. Also, in the assay with SH-SY5Y cells [2] (0.1 μM, IP), the HDAC6/Hsp90 binding result was “downregulation” and the “acetylation of Hsp90” value was “clearly enhanced”. In the assay with SH-SY5Y cells [2] (0.01–1 μM), the “level of polyubiquitinated proteins” value is “significantly accumulated”. Also, the “acetyl-α-tubulin accumulation in brain” value in the assay with 3×Tg-AD mice is reported as “increased”. Also, in the assay on 3×Tg-AD mice (hippocampal CA1), the “p-Tau (S396) expression in brain” value is “significantly downregulated” and the “p-Tau (S404) expression in brain” value is reported as “significantly downregulated”.
